Test results taken from patent publication US10166236B2, “Pharmaceutical formulations comprising substituted pyrazolo[5,1-c]pyrido[4,3-e][1,2,4]triazines for treating lysosomal storage disorders” (Perlara PBC, priority 2016, dated 2019).

Assays:
[1] = test system: Coriell GM18453 (I1061T/I1061T) cells; assay: Filipin staining of cholesterol in NPC patient fibroblasts; format: cell-based, human; settings: 10 μM; for amount of cytoplasmic free/unesterified cholesterol as visualized by filipin staining, relative to vehicle control: 48 hr incubation, FIG. 1
Experimental: Compound 1 was tested in vitro for its effect on cholesterol localization in NPC fibroblasts. The following experiments utilized Coriell GM18453 (I1061T/I1061T) cells which are immortalized cell lines prepared from NPC patient fibroblasts. These cells have a known deficiency in cholesterol esterification. Compound 1 (FIG. 1B), U18666A (positive control, FIG. 1C), and DMSO (vehicle control, FIG. 1A) were individually dispensed into 96 well In Vitro Scientific glass bottom black walled plates using the Echo acoustic liquid handler for the final concentrations indicated. Cells were suspended in media (DMEM, 5% FBS, 1% P/S, 2 mM L-glutamine) and then added to each well at 1750 cells per well. The final concentration of Compound 1 and […] was 10 μM. After a 48 hr incubation cells were fixed and stained with filipin using components from the Cholesterol Cell Based Detection Kit from Cayman. Filipin was used at a final concentration of 50 μg/mL. Cells were imaged using the ImageXpress from Molecular Devices and analyzed with MetaXpress. […] The experiment was repeated in GM18453 cells except that filipin staining was assessed in one set of wells every 24 hours for a total of five days. FIG. 2A provides an exemplary photomicrograph of a cells treated with vehicle control. There were no notable changes to the filipin staining of the vehicle-treated over the five day culture period, FIG. 2B-2F are representative photomicrographs of the Compound 1-treated cells after 1-5 days in culture, respectively.

[2] = test system: NPC1 null worms; assay: Egg count in NPC1 null nematodes (rescue of nematode model of NPC); format: in vivo, C. elegans; settings: Day 1 adults; for number of eggs per adult worm relative to DMSO control or SAHA: with or without supplemental cholesterol, p<0.001 relative to DMSO, Student's t-test
Experimental: This experiment tested the ability of Compound 1 to rescue NPC-1 null nematodes. A population of NPC1 null worms was scaled up on large petri plates (100 mm or 60 mm) to produce a large population of gravid adults. One day prior to assay, the adult worms were bleached to obtain all eggs. Eggs were allowed to hatch overnight in M9 by rocking tubes. On day of assay, the presence of L1 larvae was confirmed. A lawn of HB101 bacteria were grown on NGM agar plates (4 ml). The plates were prepared either with or without exogenous cholesterol. […] An additional set of plates prepared with 25% cremaphor alone was used as a second vehicle control. Fifty to seventy L1 larvae were added to each plate and incubated at room temperature for two days. On day 3, L1 worms had matured into Day 1 adults bearing row of eggs. Eggs were counted microscopically and the average number of eggs per adult worm for each incubation condition was calculated. […] There was no statistically significant difference between treatment with DMSO control in the 25% cremaphor carrier relative to the carrier alone (data not shown).

Molecule	amount of cytoplasmic free/unesterified cholesterol as visualized by filipin staining, relative to vehicle control [1]	amount of cytoplasmic free/unesterified cholesterol (filipin staining), time course ([1]; assessed every 24 hours for five days, FIG. 2)	number of eggs per adult worm relative to DMSO control or SAHA ([2]; 25 μM, FIG. 3C)	egg laying deficit of NPC null nematodes (eggs per adult worm) ([2]; 75 μM, FIG. 3B)	number of eggs per adult worm relative to DMSO control or SAHA ([2]; 0.5%, FIG. 3E)
CN(C)CCCn1ccc2c(nnc3c(-c4ccc(F)cc4)cnn32)c1=O [Compound 1, 11-[3-(Dimethylamino)propyl]-5-(p-fluorophenyl)-2.3.7.8.11-pentazatricyclo[7.4.0.0^2,6]trideca-1(9),3,5,7,12-pentaen-10-one]	increase in the amount of cytoplasmic free/unesterified cholesterol	Increases in the amount of cytoplasmic free/unesterified cholesterol were observed after a 24 hour culture period and the effect was sustained throughout the five day study period	statistically significant increase in the number of eggs per adult worm		
CCN(CC)CCO[C@H]1CC[C@@]2(C)C(=CC[C@@H]3[C@@H]2CC[C@]2(C)C(=O)CC[C@@H]32)C1 [Compound U18666A]	increase in the amount of cytoplasmic free/unesterified cholesterol			significantly exacerbates the egg laying deficit	
cyclodextrin					statistically significant increase in the number of eggs per adult worm
